The results in this text go back to article PMC10439952, “JT002, a small molecule inhibitor of the NLRP3 inflammasome for the treatment of autoinflammatory disorders” (Scientific Reports, 2023).

Data set [1] is described as follows: Plasma JT002 concentrations in mice after a single oral dose. The data set is classed as in vivo, mouse. The conditions noted are these: single oral dose 25 mg/kg. As for the experimental part:
In vivo pharmacodynamics (PD) were evaluated in mice for determination of target engagement as this species is routinely used for assessment of preclinical efficacy. Treatment of fresh, whole blood with LPS plus ATP results in the NLRP3-dependent release of IL-1β, thus providing a robust method for tracking target engagement of NLRP3 inflammasome inhibitors in the circulation after oral dose administration[36],[47]. In vivo target engagement using ex vivo stimulation of blood was evaluated in mice at various times after oral dosing of JT002. For each time point tested, one group of mice received a single oral dose of 25 mg/kg JT002 (n = 8/group) and another group received the vehicle control (n = 8/group). At the time of harvest, blood was collected from each animal and an aliquot removed and processed to plasma for determination of JT002 concentrations. The remaining blood was stimulated ex vivo with LPS plus ATP followed by analysis of IL-1β concentrations (Fig. 3A). […] Consistent with these findings, plasma concentrations of JT002 decreased over time, with mean concentrations of ≥ 4.0 µM through 8 h and a mean concentration of 6 nM at the 24-h sampling (Fig. 3C,D). […]

The subject of data set [2] is autocatalytic cleavage of pro-caspase-1 (p45) into the p10 subunit. Kind of data set: Western blot for caspase-1 p10 in LPS + nigericin stimulated mouse BMDM lysates and supernatants. The data set is classed as cell-based. Conditions: LPS + nigericin treated mBMDMs, compound 10 µM. As to the method: BMDMs were activated with LPS and nigericin as described above and were lysed in situ with 50 μL of 4× NuPAGE LDS sample buffer (Fisher Scientific, Hampton, NH) + 5% β-mercaptoethanol and prepared for polyacrylamide gel electrophoresis. Samples were run on NuPAGE Bis–Tris gels (Fisher Scientific, Hampton, NH) and transferred to polyvinylidene difluoride (PVDF) membranes (Fisher Scientific, Hampton, NH) using the iBlot® 2 Dry Blotting System (Fisher Scientific, Hampton, NH). Washed PVDF membranes were blocked and then probed with the following primary antibodies: procaspase-1 + p10 + p12 [EPR16883] (Abcam, Cambridge, MA), β-actin (AC-74, Sigma-Aldrich, St. Louis, MO) and NLRP3 [Cryo-2] (AdipoGen Life Sciences, San Diego, CA). Bound primary antibodies were detected using HRP-labeled secondary antibodies and membranes were imaged with an Azure c300 imager (Azure Biosystems, Dublin, CA). Bands were quantitated using ImageJ software.

Data set [3] deals with T1, caspase-1 (Homo sapiens, UniProt P29466).
T1 construct: Reaction Biology Corporation (assay run there as a service)
T1 sequence (P29466 120-297 limits assumed): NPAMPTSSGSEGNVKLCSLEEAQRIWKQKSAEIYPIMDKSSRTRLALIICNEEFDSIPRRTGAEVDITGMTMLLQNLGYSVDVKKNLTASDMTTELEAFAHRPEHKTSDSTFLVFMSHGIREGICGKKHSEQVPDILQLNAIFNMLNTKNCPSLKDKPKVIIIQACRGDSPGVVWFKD
T1 sequence (P29466 317-404 limits assumed): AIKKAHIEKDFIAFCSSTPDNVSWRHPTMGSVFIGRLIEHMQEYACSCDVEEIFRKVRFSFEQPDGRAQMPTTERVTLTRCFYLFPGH
Kind of data set: Cell-free biochemical caspase-1 assay. As to the method: Cell viability was determined by addition of an equal volume of CellTiter-Glo® 2.0 reagent (Promega) to the remaining cells/supernatant in each well. Intracellular Caspase-1 activity was measured using the Caspase-Glo® assay (Promega) according to the manufacturer’s instructions. The biochemical capsase-1 assay was conducted at Reaction Biology Corporation (Malvern, USA). Human IL-1β, IL-1α, and TNFα and mouse IL-1β were measured in cell culture supernatants using homogeneous time resolved fluorescence assay kits (HTRF, Cisbio, Codolet, France). Human IL-18 was measured in cell culture supernatants using an ELISA kit (R&D Systems, Minneapolis, MN, USA). Plasma IL-1β concentrations were determined by Quantikine® ELISA (R&D Systems, Minneapolis, MN).

Consider `CO[C@@H]1COc2c(S(=O)(=O)NC(=O)Nc3c4c(cc5c3CCC5)CCC4)cnn2C1` [JT002], for which the concentration at 24 h in data set [1] (male, C57BL/6, mouse, plasma, 24-h sampling) was 6 nM; in data set [1] (through 8 h) it was not below 4000 nM. The “formation of the caspase-1 p10 subunit (autocatalytic cleavage of pro-caspase-1)” value in data set [2] was “blocked formation of the p10 subunit and its release from the cell”. Also, the “direct inhibition of caspase-1 enzymatic activity” value in data set [3] is “not a direct inhibitor of caspase-1 enzymatic activity”.
